Results taken from ChEMBL document CHEMBL4052590, “Anti-Osteoporotic Activity of Harpagoside by Upregulation of the BMP2 and Wnt Signaling Pathways in Osteoblasts and Suppression of Differentiation in Osteoclasts” (J Nat Prod, 2017).
Active and inactive are the calls of the source. The calls are words filed in the database; no cut-off is given here.

Experiments:
Mus musculus [1] = experiment: Effect on TRAP activity in serum of OVX-induced bone loss ICR mouse model at 10 ug/kg, po via gavage for 12 weeks (reference value: 19.8 +/- 1.0 U/L); type: functional
Mus musculus [2] = experiment: Effect on […] level in serum of OVX-induced bone loss ICR mouse model at 10 ug/kg, po via gavage for 12 weeks by ELISA (reference value: 8.2 +/- 0.4 mg/dl); type: functional
Mus musculus [3] = experiment: Effect on alkaline phosphatase activity in serum of OVX-induced bone loss ICR mouse model at 10 ug/kg, po via gavage for 12 weeks using p-NPP as substrate (reference value: 84.9 +/- 4.2 U/L); type: functional
Mus musculus [4] = experiment: Effect on calcium level in serum of OVX-induced bone loss ICR mouse model at 10 ug/kg, po via gavage for 12 weeks by ELISA (reference value: 9.3 +/- 0.3 mg/dl); type: functional
Mus musculus [5] = experiment: Anti-osteoporotic activity in OVX-induced bone loss ICR mouse model assessed as decrease in trabecular bone destruction in femur at 10 ug/kg, po administered for 12 weeks via gavage by microcomputed tomography; type: functional, organism-based
Mus musculus [6] = experiment: Effect on osteocalcin level in serum of OVX-induced bone loss ICR mouse model at 10 ug/kg, po via gavage for 12 weeks by ELISA (reference value: 176.9 +/- 4.7 ng/ml); type: functional
Mus musculus [7] = experiment: Effect on C-terminal telopeptide level in serum of OVX-induced bone loss ICR mouse model at 10 ug/kg, po via gavage for 12 weeks by ELISA (reference value: 95.7 +/- 3.8 ng/ml); type: functional

C[C@]12CC[C@@H]3c4ccc(O)cc4CC[C@H]3[C@@H]1CC[C@@H]2O [ESTRADIOL]
Activity (Mus musculus [1]): 10.8 U/L
Activity (Mus musculus [2]): 7.9 mg/dL
Activity (Mus musculus [3]): 59.9 U/L
Activity (Mus musculus [4]): 9.1 mg/dL
Activity (Mus musculus [5]): Active
Activity (Mus musculus [6]): 141.9 ng/mL
Activity (Mus musculus [7]): 76.6 ng/mL
